Source: patent publication US20260200884A1, “COMPOUND FOR TREATING GOUT OR HYPERURICEMIA” (Arthrosi Therapeutics, Inc., priority 2019, published 2026)

How the values were obtained:
[1] = Solubility of the test article in HBSS assay buffer; assay type: physicochemical; conditions: all tested concentrations 0.01-10 μM; highest tested concentration 10 μM
Method: Before the experiment, the medium was removed and the cells were washed twice with 100 μL of HBSS without Cl^−. Uptake experiments were carried out at 37±1° C. in 50 μL of HBSS without Cl^−, pH 7.4 containing the probe substrate (20 μM uric acid) and the test article (TA) or solvent.
Results: Compound 1 was soluble in HBSS buffer at all tested concentrations; the highest tested concentration being 10 μM.

[2] = cited from earlier work

solubility in HBSS buffer [1] | Compound | serum uric acid (sUA) level reached ([2]; chronic therapy, patients) | hepatotoxicity ([2]; in certain patients)
soluble | [2H]c1c(O)c([2H])c2oc(C(C)O)c(C(=O)c3cc(Br)c(O)c(Br)c3)c2c1[2H] (stereo not drawn) [Compound 1, (3,5-dibromo-4-hydroxyphenyl)(6-hydroxy-2-(1-hydroxyethyl)benzofuran-3-yl-4,5,7-d3)methanone] | – | –
– | CCc1oc2ccccc2c1C(=O)c1cc(Br)c(O)c(Br)c1 [Benzbromarone] | < 6 mg/dL | associated with hepatotoxicity
